Columns and labels:
[1] = target: T1, Aspergillus fumigatus Amadoriase I variant SS03 (Ser67Cys + Pro121Cys), SEQ ID NO: 4 (Aspergillus fumigatus, UniProt O42629, P121C/S67C); assay: Steady-state kinetics of Amadoriase variant SS03 towards fructosyl-lysine (glucosone formation at 322 nm); format: biochemical; conditions: apparent, fructosyl-lysine 0.05 mM to 2 mM, 10 mM Tris HCl pH 7.4, 20 mM o-Phenylenediamine, three independent experiments
T1 construct: E. coli codon-optimised gene in bacterial (Novagen, pET-type) vector
Procedure: (§1) Enzymatic activity was followed by a continuous assay that detects glucosone formation over time from fructosyl-lysine at 322 nm. The 200 μl reaction mixture contained 10 mM Tris HCl pH 7.4, 20 mM o-Phenylenediamine, 2 mM fructosyl-lysine. After 1 minute of pre-incubation, the reaction was started adding 4.5 μg of enzyme, and the increase in absorbance at 322 nm (glucosone ε322=149.25 M^−1cm^−1) was monitored in a Spark10M (Tecan).
(§2) Apparent steady-state parameters for the enzymes over its natural substrate were determined by means of the assay described above, with fructosyl-lysine concentrations varied from 0.05 mM to 2 mM. Data points were obtained from three independent experiments. Kinetic parameters were calculated using a non-linear least-square fit of the data, and fitted with Eq. 1 (the Michaelis-Menten equation for hyperbolic substrate kinetics) using Hyperbola fit function of GraphPad Prism version 5.00 for Windows, GraphPad Software, La Jolla Calif. USA.
(§3) [formula] in which v, Vmax, S, and Km represent the steady state reaction rate, maximum reaction rate, substrate concentration, and Michaelis-Menten constant for the substrate, respectively.

[2] = target: T2, Aspergillus fumigatus Amadoriase I variant SS17 (Asp295Cys + Lys303Cys), SEQ ID NO: 6 (Aspergillus fumigatus, UniProt O42629, D295C/K303C); assay: Steady-state kinetics of Amadoriase variant SS17 towards fructosyl-lysine (glucosone formation at 322 nm); format: biochemical; conditions: apparent, fructosyl-lysine 0.05 mM to 2 mM, 10 mM Tris HCl pH 7.4, 20 mM o-Phenylenediamine, three independent experiments
T2 construct: E. coli codon-optimised gene in bacterial (Novagen, pET-type) vector
Procedure: as §1, §2, §3

Question: Which results are given for `N[C@@H](CCCCNCC(=O)[C@@H](O)[C@H](O)[C@H](O)CO)C(=O)O` [fructosyl-lysine]?
Answer: kcat [1]: 21.90 ± 2.73 s⁻¹; kcat/Km [1]: 64170 ± 25500 M⁻¹ s⁻¹; kcat [2]: 22.91 ± 2.12 s⁻¹; kcat/Km [2]: 33340 ± 10160 M⁻¹ s⁻¹

— US11649440B2, “Thermostabilized Amadoriases and uses thereof” (FONDAZIONE ISTITUTO ITALIANO DI TECNOLOGIA, priority 2017, dated 2023)
